Values of other authors in patent publication US8772507B2, “Imidazole-benzamide anti-cancer agents” (Cytokinetics, Inc., priority 2004, dated 2014).
Where two headings read alike, the source gives them in different places.

Tested on: A549 cells

SMILES | GI50 | GI50 (no unit printed at this place)
O=c1[nH]cc(F)c(=O)[nH]1 [5-fluorouracil] | 1000 nM | 1000 nM
COc1cccc2c1C(=O)c1c(O)c3c(c(O)c1C2=O)C[C@@](O)(C(=O)CO)C[C@@H]3O[C@H]1C[C@H](N)[C@H](O)[C@H](C)O1 [doxorubicin] | 63 nM | 
NC(=O)NO [hydroxyurea] | 500000 nM | 
CC(=O)O[C@H]1C(=O)[C@@]2(C)[C@H]([C@H](OC(=O)c3ccccc3)[C@]3(O)C[C@H](OC(=O)[C@H](O)[C@@H](NC(=O)c4ccccc4)c4ccccc4)C(C)=C1C3(C)C)[C@]1(OC(C)=O)CO[C@@H]1C[C@@H]2O [paclitaxel] | 4 nM | 
